Here are results for six molecules from ChEMBL document CHEMBL5506015, “Discovery of a Meisoindigo-Derived PROTAC as the ATM Degrader: Revolutionizing Colorectal Cancer Therapy via Synthetic Lethality with ATR Inhibitors” (J Med Chem, 2024).

Active and inactive are the calls of the source. The rule behind the calls is not given here. Some results are limits rather than exact numbers.

Data set [1] deals with SW-620. Kind of data set: Cytotoxicity against human SW620 cells assessed as reduction in cell viability incubated for 48 hrs by MTT assay. The following applies: SW-620, 48 h.
The test system of another data set is COLO 205. Kind of data set: Cytotoxicity against human COLO 205 cells assessed as reduction in cell viability incubated for 48 hrs by MTT assay. As to conditions: COLO 205, 48 h. In general terms: Formazan colour is commonly taken as a measure of viable cells.
The subject of the next data set is NCI-H358. Kind of data set: Cytotoxicity against human NCI-H358 cells assessed as reduction in cell viability incubated for 48 hrs by MTT assay. The following applies: NCI-H358, 48 h.
The nature of data set [2]: Cytotoxicity against human HIEC-6 cells assessed as reduction in cell viability incubated for 48 hrs by MTT assay. It counts as toxicity, cell-based. As to conditions: HIEC-6 cells.
Another data set relates to K562. Kind of data set: Cytotoxicity against human K562 cells assessed as reduction in cell viability incubated for 48 hrs by MTT assay. As to conditions: K562, 48 h.
In another data set the test system is SW13. The experiment in a line: Cytotoxicity against human SW13 cells assessed as reduction in cell viability incubated for 48 hrs by MTT assay. As to conditions: SW13, 48 h.
For the next data set, the system named is LoVo. The experiment in a line: Cytotoxicity against human LoVo cells assessed as reduction in cell viability incubated for 48 hrs by MTT assay.
Another data set concerns RKO. The experiment in a line: Cytotoxicity against human RKO cells assessed as reduction in cell viability incubated for 48 hrs by MTT assay.
A further data set deals with SW480. Kind of data set: Cytotoxicity against human SW480 cells assessed as reduction in cell viability incubated for 48 hrs by MTT assay. As to conditions: SW480, 48 h.
A further data set deals with A2780. Kind of data set: Cytotoxicity against human A2780 cells assessed as reduction in cell viability incubated for 48 hrs by MTT assay. As to conditions: A2780, 48 h.
For data set [3], the system named is SW-620. The experiment in a line: Antitumor activity against human SW620 cells xenografted in Balb/c nude mouse model assessed as decrease in BCL2 protein level at 25 mg/kg/day measured after 14 days by Western blot analysis. It counts as functional, organism-based. The following applies: time 14.0 day. For orientation: In xenograft studies the graft and the host belong to different species.

In data set [4] the test system is SW-620. The experiment in a line: Antitumor activity against human SW620 cells xenografted in Balb/c nude mouse model assessed as decrease in pro-caspase 3 level at 25 mg/kg/day measured after 14 days by Western blot analysis. It counts as functional, organism-based. The following applies: time 14.0 day.
The test system of data set [5] is SW-620. Kind of data set: Antitumor activity against human SW620 cells xenografted in Balb/c nude mouse model assessed as increase in gamma-H2AX at 25 mg/kg/day measured after 14 days by Western blot analysis. As to conditions: time 14.0 day. In kind it is functional, organism-based.
The subject of data set [6] is SW-620. The experiment in a line: Antitumor activity against human SW620 cells xenografted in Balb/c nude mouse model assessed as fibrosis at 25 mg/kg/day measured after 14 days by H and E staining based analysis. In kind it is functional, organism-based. As to conditions: time 14.0 day.
In data set [7] the test system is SW-620. The experiment in a line: Antitumor activity against human SW620 cells xenografted in Balb/c nude mouse model assessed as decrease in ATM protein level at 25 mg/kg/day measured after 14 days by Western blot analysis. In kind it is functional, organism-based. The following applies: time 14.0 day.
Data set [8] relates to SW-620. Kind of data set: Antitumor activity against human SW620 cells xenografted in Balb/c nude mouse model assessed as inflammatory cell infiltration at 25 mg/kg/day measured after 14 days by H and E staining based analysis. It counts as functional, organism-based. As to conditions: time 14.0 day.
Data set [9] concerns SW-620. Kind of data set: Antitumor activity against human SW620 cells xenografted in Balb/c nude mouse model assessed as increase in cleaved-caspase 3 level at 25 mg/kg/day measured after 14 days by Western blot analysis. In kind it is functional, organism-based. The following applies: time 14.0 day.
For data set [10], the system named is SW-620. The experiment in a line: Antitumor activity against human SW620 cells xenografted in Balb/c nude mouse model assessed as decrease in cleaved caspase 3 level at 25 mg/kg/day measured after 14 days by Western blot analysis. It counts as functional, organism-based. As to conditions: time 14.0 day.
In data set [11] the test system is SW-620. The experiment in a line: Antitumor activity against human SW620 cells xenografted in Balb/c nude mouse model assessed as reduction in tumor load at 25 mg/kg/day administered for 14 days by vernier caliper based analysis. In kind it is functional, organism-based. As to conditions: time 14.0 day.
For data set [12], the system named is SW-620. Kind of data set: Antitumor activity against human SW620 cells xenografted in Balb/c nude mouse model assessed as necrosis at 25 mg/kg/day measured after 14 days by H and E staining based analysis. In kind it is functional, organism-based. The following applies: time 14.0 day.
In data set [13] the test system is SW-620. Kind of data set: Antitumor activity against human SW620 cells xenografted in Balb/c nude mouse model assessed as increase in gamma-H2AX level at 25 mg/kg/day measured after 14 days by Western blot analysis. It counts as functional, organism-based. The following applies: time 14.0 day.
Another data set deals with HCT-116. Kind of data set: Cytotoxicity against human HCT-116 cells assessed as reduction in cell viability incubated for 48 hrs by MTT assay. As to conditions: HCT-116, 48 h.
Data set [14] has as its system SW-620. Kind of data set: Effect on ATM mRNA level in human SW620 cells at 2.5 to 10 uM incubated for 12 hr by RT-PCR analysis. In kind it is functional, cell-based. The following applies: dose 2.5-10 µM.
Data set [15] deals with SW-620. The experiment in a line: Downregulation of KDM4B level in human SW620 cells at 1.25 to 10 uM measured after 12 hrs by immunoblot analysis. In kind it is functional, cell-based. As to conditions: dose 1.25-10 µM. Background: Immunoblotting shows a protein as a band on a membrane.
The test system of data set [16] is SW-620. The experiment in a line: Downregulation of PROX1 level in human SW620 cells at 1.25 to 10 uM measured after 12 hrs by immunoblot analysis. In kind it is functional, cell-based. As to conditions: dose 1.25-10 µM.

With `O=c1[nH]cc(F)c(=O)[nH]1` [FLUOROURACIL], the half-maximal inhibitory concentration (IC50) (usually the midpoint of a concentration-inhibition curve) with SW-620 [1] was 13.8 µM; in the data set on COLO 205, 4.54 µM; with NCI-H358, greater than 20 µM; in the data set with K562, greater than 20 µM; with SW13, greater than 20 µM; in the data set with LoVo it was 9.89 µM. Besides, the half-maximal inhibitory concentration (IC50) came out at 3.43 µM in the data set on RKO, 12.6 µM in the data set with SW480 and 12.9 µM in the data set on A2780. In [2], the IC50 at 48 h turned out to be 18.6 µM.

Regarding `C[C@@H]1COCCN1c1cc(C2([S@](C)(=N)=O)CC2)nc(-c2cc[nH]c3nccc2-3)n1`, the outcome with SW-620 [3], in the data set with SW-620 [4], with SW-620 [5], in the data set with SW-620 [6], in the data set on SW-620 [7] and in the data set on SW-620 [8] was Active. In addition, the result in the data set on SW-620 [9], with SW-620 [10], with SW-620 [11], with SW-620 [12] and in the data set on SW-620 [13] was Active.

With `O=C1CCC(N2Cc3c(NCCCCCCn4cc(CCCN5C(=O)/C(=C6/C(=O)Nc7ccccc76)c6ccccc65)nn4)cccc3C2=O)C(=O)N1` (stereo not drawn), the IC50 was 7.76 µM in the data set with SW-620 [1]; greater than 20 µM in the data set with COLO 205; greater than 20 µM with NCI-H358; greater than 20 µM with K562; greater than 20 µM in the data set on SW13; 15.1 µM with LoVo. Besides, the IC50 with RKO was 6.79 µM; in the data set on HCT-116, greater than 20 µM; in the data set on SW480, greater than 20 µM; in the data set with A2780 it was 7.47 µM. Besides, the IC50 at 48 h in data set [2] was greater than 20 µM.

With `CN1C(=O)/C(=C2/C(=O)Nc3ccccc32)c2ccccc21` [MEISOINDIGO], the IC50 was 9.14 µM with SW-620 [1]; 7.55 µM in the data set with COLO 205; greater than 20 µM with NCI-H358; 8.17 µM in the data set on K562; 12.9 µM in the data set on SW13; 12.7 µM in the data set with LoVo. Moreover, the half-inhibitory concentration (IC50) was 11.6 µM in the data set with RKO, 5.36 µM with HCT-116, 2.8 µM in the data set with SW480 and 6.57 µM with A2780. For the same molecule, the result in the data set on SW-620 [14] was inactive. Besides, the half-inhibitory concentration (IC50) at 48 h in data set [2] was determined as 12 µM. Moreover, the outcome in the data set on SW-620 [15] and in the data set on SW-620 [16] was Active.

As to `CC(C)n1c(=O)n(C)c2cnc3cc(F)c(-c4ccc(OCCCN5CCCCC5)nc4)cc3c21` [AZD-1390], the IC50 in the data set on SW-620 [1], with COLO 205, in the data set with NCI-H358, in the data set with K562, with SW13 and in the data set on LoVo was greater than 20 µM each time. For the same molecule, the IC50 with RKO, in the data set on HCT-116, with SW480 and with A2780 was greater than 20 µM throughout. The 50% inhibitory concentration (IC50) at 48 h in data set [2] is greater than 20 µM.

Consider `Cc1ncsc1-c1ccc(CNC(=O)[C@@H]2C[C@@H](O)CN2C(=O)[C@@H](NC(=O)OC(C)(C)C)C(C)(C)C)cc1`, for which the IC50 in the data set with SW-620 [1], in the data set on COLO 205, with NCI-H358, in the data set on K562, with SW13 and in the data set on LoVo was greater than 20 µM throughout. Also, the concentration for half-maximal inhibition (IC50) in the data set on RKO, in the data set on HCT-116, in the data set with SW480 and in the data set with A2780 was greater than 20 µM throughout. Moreover, the half-inhibitory concentration (IC50) at 48 h in data set [2] was greater than 20 µM.
